Activity calls are given as the source filed them. The calls are words filed in the database; no cut-off is given here. Square brackets hold non-standard residues; d marks the D form. Peptide text beside a SMILES is read from it. pS = N[C@@H](COP(=O)(O)O)C(=O)O
System: RBL-2H3
Test: Induction of cell migration in rat RBL2H3 cells at 10 nM after 6 hrs by RTCA
Type: cell-based
Conditions: rbl-2h3, 6 h, 0.01 µM
With `N=C(N)NCCC[C@H](NC(=O)[C@H](Cc1ccc(O)cc1)NC(=O)[C@H](COP(=O)(O)O)NC(=O)[C@H](CO)NC(=O)[C@@H](N)CCCNC(=N)N)C(N)=O` (H-RS[pS]YR-NH2) the Activity was “Non-Toxic”. For `N=C(N)NCCC[C@H](NC(=O)[C@H](COP(=O)(O)O)NC(=O)[C@H](CCCNC(=N)N)NC(=O)[C@@H](N)CO)C(=O)N[C@@H](Cc1ccc(O)cc1)C(N)=O` (H-SR[pS]RY-NH2), the Activity was “Non-Toxic”. In the case of `N=C(N)NCCC[C@H](NC(=O)[C@H](CO)NC(=O)[C@H](CCCNC(=N)N)NC(=O)[C@@H](N)COP(=O)(O)O)C(=O)N[C@@H](Cc1ccc(O)cc1)C(N)=O` (H-[pS]RSRY-NH2), the Activity is reported as “Non-Toxic”. With `N=C(N)NCCC[C@@H]1NC(=O)[C@H](CCC(=O)O)NC(=O)[C@H](CCCNC(=N)N)NC(=O)[C@H](Cc2ccc(O)cc2)NC(=O)[C@H](CCC(=O)O)NC1=O` (cyclo(EREYR)) the Activity was “Non-Toxic”. For `N=C(N)NCCC[C@@H]1NC(=O)[C@H](CCC(=O)O)NC(=O)[C@H](CCCNC(=N)N)NC(=O)[C@H](Cc2ccccc2)NC(=O)[C@H](CO)NC1=O` (cyclo(ERSFR)), the Activity was “Non-Toxic”. For `N=C(N)NCCC[C@@H]1NC(=O)[C@H](CCC(=O)O)NC(=O)[C@H](CCCNC(=N)N)NC(=O)[C@H](Cc2c[nH]c3ccccc23)NC(=O)[C@H](CO)NC1=O` (cyclo(ERSWR)), the Activity was “Non-Toxic”. With `N=C(N)NCCC[C@@H]1NC(=O)[C@H](CCC(=O)O)NC(=O)[C@H](CCCNC(=N)N)NC(=O)[C@H](Cc2ccc(O)cc2)NC(=O)[C@H](CO)NC1=O` (cyclo(ERSYR)) the Activity was “Non-Toxic”. For `N=C(N)NCCC[C@@H]1NC(=O)[C@H](CO)NC(=O)[C@H](CCCNC(=N)N)NC(=O)[C@H](Cc2ccc(O)cc2)NC(=O)[C@H](CCC(=O)O)NC1=O` (cyclo(EYRSR)), the Activity was “Non-Toxic”.

Species on record: Rattus norvegicus
Test: Antagonist activity at FPR1 in rat RBL-2H3/ETFR cells assessed as inhibition of fMLF-induced cell migration at 10 nM after 6 hrs by RTCA relative to fMLF
Type: cell-based
Conditions: not given
For `N=C(N)NCCC[C@H](NC(=O)[C@H](Cc1ccc(O)cc1)NC(=O)[C@H](COP(=O)(O)O)NC(=O)[C@H](CO)NC(=O)[C@@H](N)CCCNC(=N)N)C(N)=O` (H-RS[pS]YR-NH2), the inhibition was 0%. In the case of `N=C(N)NCCC[C@H](NC(=O)[C@H](COP(=O)(O)O)NC(=O)[C@H](CCCNC(=N)N)NC(=O)[C@@H](N)CO)C(=O)N[C@@H](Cc1ccc(O)cc1)C(N)=O` (H-SR[pS]RY-NH2), the inhibition is reported as 67%. For `N=C(N)NCCC[C@H](NC(=O)[C@H](CO)NC(=O)[C@H](CCCNC(=N)N)NC(=O)[C@@H](N)COP(=O)(O)O)C(=O)N[C@@H](Cc1ccc(O)cc1)C(N)=O` (H-[pS]RSRY-NH2), the inhibition was 58%. Compound `N=C(N)NCCC[C@@H]1NC(=O)[C@H](CCC(=O)O)NC(=O)[C@H](CCCNC(=N)N)NC(=O)[C@H](Cc2ccc(O)cc2)NC(=O)[C@H](CCC(=O)O)NC1=O` (cyclo(EREYR)) has an inhibition of 61%. `N=C(N)NCCC[C@@H]1NC(=O)[C@H](CCC(=O)O)NC(=O)[C@H](CCCNC(=N)N)NC(=O)[C@H](Cc2ccccc2)NC(=O)[C@H](CO)NC1=O` (cyclo(ERSFR)) showed an inhibition of 20%. `N=C(N)NCCC[C@@H]1NC(=O)[C@H](CCC(=O)O)NC(=O)[C@H](CCCNC(=N)N)NC(=O)[C@H](Cc2c[nH]c3ccccc23)NC(=O)[C@H](CO)NC1=O` (cyclo(ERSWR)) showed an inhibition of 0%. Work on `N=C(N)NCCC[C@@H]1NC(=O)[C@H](CCC(=O)O)NC(=O)[C@H](CCCNC(=N)N)NC(=O)[C@H](Cc2ccc(O)cc2)NC(=O)[C@H](CO)NC1=O` (cyclo(ERSYR)) yielded an inhibition of 49%. With `N=C(N)NCCC[C@@H]1NC(=O)[C@H](CO)NC(=O)[C@H](CCCNC(=N)N)NC(=O)[C@H](Cc2ccc(O)cc2)NC(=O)[C@H](CCC(=O)O)NC1=O` (cyclo(EYRSR)) the inhibition was 34%.

Species on record: Rattus norvegicus
Test: Inhibition of FITC-fMLF induced FPR1 internalization in rat RBL-2H3/ETFR cells at 10 uM preincubated for 30 mins followed by agonist addition measured after 30 mins by fluorescence assay
Type: cell-based
Conditions: not given
In the case of `N=C(N)NCCC[C@H](NC(=O)[C@H](Cc1ccc(O)cc1)NC(=O)[C@H](COP(=O)(O)O)NC(=O)[C@H](CO)NC(=O)[C@@H](N)CCCNC(=N)N)C(N)=O` (H-RS[pS]YR-NH2), the inhibition is reported as “inactive”. `N=C(N)NCCC[C@H](NC(=O)[C@H](COP(=O)(O)O)NC(=O)[C@H](CCCNC(=N)N)NC(=O)[C@@H](N)CO)C(=O)N[C@@H](Cc1ccc(O)cc1)C(N)=O` (H-SR[pS]RY-NH2) showed an inhibition of 67%. With `N=C(N)NCCC[C@@H]1NC(=O)[C@H](CCC(=O)O)NC(=O)[C@H](CCCNC(=N)N)NC(=O)[C@H](Cc2ccc(O)cc2)NC(=O)[C@H](CCC(=O)O)NC1=O` (cyclo(EREYR)) the inhibition was 61%. With `N=C(N)NCCC[C@@H]1NC(=O)[C@H](CCC(=O)O)NC(=O)[C@H](CCCNC(=N)N)NC(=O)[C@H](Cc2ccccc2)NC(=O)[C@H](CO)NC1=O` (cyclo(ERSFR)) the inhibition was “Active”. In the case of `N=C(N)NCCC[C@@H]1NC(=O)[C@H](CCC(=O)O)NC(=O)[C@H](CCCNC(=N)N)NC(=O)[C@H](Cc2c[nH]c3ccccc23)NC(=O)[C@H](CO)NC1=O` (cyclo(ERSWR)), the inhibition is reported as “inactive”. With `N=C(N)NCCC[C@@H]1NC(=O)[C@H](CCC(=O)O)NC(=O)[C@H](CCCNC(=N)N)NC(=O)[C@H](Cc2ccc(O)cc2)NC(=O)[C@H](CO)NC1=O` (cyclo(ERSYR)) the inhibition was 55%.

System: not listed separately
Test: Induction of cell migration in rat RBL2H3/ETFR cells stably expressing FPR1 at 10 nM after 6 hrs by RTCA
Type: cell-based
Conditions: 0.01 µM
In the case of `N=C(N)NCCC[C@H](NC(=O)[C@H](Cc1ccc(O)cc1)NC(=O)[C@H](COP(=O)(O)O)NC(=O)[C@H](CO)NC(=O)[C@@H](N)CCCNC(=N)N)C(N)=O` (H-RS[pS]YR-NH2), the Activity is reported as “Non-Toxic”. In the case of `N=C(N)NCCC[C@H](NC(=O)[C@H](COP(=O)(O)O)NC(=O)[C@H](CCCNC(=N)N)NC(=O)[C@@H](N)CO)C(=O)N[C@@H](Cc1ccc(O)cc1)C(N)=O` (H-SR[pS]RY-NH2), the Activity is reported as “Non-Toxic”. With `N=C(N)NCCC[C@H](NC(=O)[C@H](CO)NC(=O)[C@H](CCCNC(=N)N)NC(=O)[C@@H](N)COP(=O)(O)O)C(=O)N[C@@H](Cc1ccc(O)cc1)C(N)=O` (H-[pS]RSRY-NH2) the Activity was “Non-Toxic”. In the case of `N=C(N)NCCC[C@@H]1NC(=O)[C@H](CCC(=O)O)NC(=O)[C@H](CCCNC(=N)N)NC(=O)[C@H](Cc2ccc(O)cc2)NC(=O)[C@H](CCC(=O)O)NC1=O` (cyclo(EREYR)), the Activity is reported as “Non-Toxic”. For `N=C(N)NCCC[C@@H]1NC(=O)[C@H](CCC(=O)O)NC(=O)[C@H](CCCNC(=N)N)NC(=O)[C@H](Cc2ccccc2)NC(=O)[C@H](CO)NC1=O` (cyclo(ERSFR)), the Activity was “Non-Toxic”. With `N=C(N)NCCC[C@@H]1NC(=O)[C@H](CCC(=O)O)NC(=O)[C@H](CCCNC(=N)N)NC(=O)[C@H](Cc2c[nH]c3ccccc23)NC(=O)[C@H](CO)NC1=O` (cyclo(ERSWR)) the Activity was “Non-Toxic”. In the case of `N=C(N)NCCC[C@@H]1NC(=O)[C@H](CCC(=O)O)NC(=O)[C@H](CCCNC(=N)N)NC(=O)[C@H](Cc2ccc(O)cc2)NC(=O)[C@H](CO)NC1=O` (cyclo(ERSYR)), the Activity is reported as “Non-Toxic”. In the case of `N=C(N)NCCC[C@@H]1NC(=O)[C@H](CO)NC(=O)[C@H](CCCNC(=N)N)NC(=O)[C@H](Cc2ccc(O)cc2)NC(=O)[C@H](CCC(=O)O)NC1=O` (cyclo(EYRSR)), the Activity is reported as “Non-Toxic”.

System: not listed separately
Test: Antagonist activity at FPR1 in rat RBL-2H3/ETFR cells assessed as inhibition of fMLF-induced cell migration after 4 hrs by RTCA relative to fMLF
Type: cell-based
Conditions: not given
In the case of `N=C(N)NCCC[C@H](NC(=O)[C@H](COP(=O)(O)O)NC(=O)[C@H](CCCNC(=N)N)NC(=O)[C@@H](N)CO)C(=O)N[C@@H](Cc1ccc(O)cc1)C(N)=O` (H-SR[pS]RY-NH2), the IC50 is reported as “Dose-dependent effect”.

Same assay, conditions: Rattus norvegicus, RBL-2H3, 4 h; read-out: IC50
With `N=C(N)NCCC[C@H](NC(=O)[C@H](COP(=O)(O)O)NC(=O)[C@H](CCCNC(=N)N)NC(=O)[C@@H](N)CO)C(=O)N[C@@H](Cc1ccc(O)cc1)C(N)=O` (H-SR[pS]RY-NH2) the IC50 was 0.1 pM.

Species on record: Rattus norvegicus
Test: Inhibition of FITC-fMLF induced FPR1 internalization in rat RBL-2H3/ETFR cells at 10 uM preincubated for 30 mins followed by agonist addition measured after 30 mins by confocal fluorescent microscopy
Type: cell-based
Conditions: not given
For `N=C(N)NCCC[C@H](NC(=O)[C@H](Cc1ccc(O)cc1)NC(=O)[C@H](COP(=O)(O)O)NC(=O)[C@H](CO)NC(=O)[C@@H](N)CCCNC(=N)N)C(N)=O` (H-RS[pS]YR-NH2), the inhibition was “inactive”. For `N=C(N)NCCC[C@H](NC(=O)[C@H](COP(=O)(O)O)NC(=O)[C@H](CCCNC(=N)N)NC(=O)[C@@H](N)CO)C(=O)N[C@@H](Cc1ccc(O)cc1)C(N)=O` (H-SR[pS]RY-NH2), the inhibition was “Active”.
